The subject of data set [1] is T47D cells. The data set can be described thus: Caspase-3 activity assay (apoptosis) in T47D cells. The settings on record: T47D cells, 48 hours.
The test system of data set [2] is mir-143 miRNA binding site. The data set can be described thus: GFP mir-143 sensor reporter in T-REx-HeLa cells. Type of data set: cell-based, human. The settings on record: for Mean fluorescence: T-REx-HeLa cells, 24 hours post-transfection. The source says:
Reporter systems have been developed herein to assess the ability of miRNA mimics to provoke a gene silencing response and to assess whether antisense oligomeric compounds targeting miRNAs can inhibit gene silencing activity. The T-REx™-HeLa cell line (Invitrogen Corp., Carlsbad, Calif.) was used for either stable or transient transfections with plasmids constitutively expressing miRNAs, pre-miRNAs, pri-miRNAs or mimics thereof, and, in some cases, antisense oligomeric compounds targeting the expressed miRNA were also transfected into the cells. It is understood that other mammalian cells lines can also be used in this reporter system. T-REx™-HeLa cells were routinely cultured in DMEM, high glucose (Invitrogen Corporation, Carlsbad, Calif.), supplemented with 10% fetal bovine serum (Invitrogen Corporation). […] Cells were harvested when they reached 90% confluence, and on the day before transfection with expression or reporter plasmids (described in detail below), the T-REx™-HeLa cells were seeded onto 24-well plates at 50,000 cells/well. The following day, cells were transfected according to standard published procedures with various combinations of plasmids using 2 μg Lipofectamine™ 2000 Reagent (Invitrogen) per μg of plasmid DNA. When transfecting oligomeric compounds, 1-3 μg of Lipofectamine™ 2000 Reagent was used per 100 nM oligomeric compound.
Plasmids used are as follows: The pcDNA3.1©/NT-GFP (Invitrogen) plasmid, containing a CMV promoter controlling expression of a GFP reporter sequence at the N-terminus of the transcription start site was used as a control plasmid. The pcDNA3.1©/NT-GFP-mir-143 sensor plasmid contains (in addition to the elements above) three 22-nucleotide sites encoding the mir-143 miRNA binding site, downstream of the GFP coding sequence and upstream of the polyadenylation signal. The pCR3-pri-mir-143 plasmid (“pri-mir-143”) is a CMV promoter-driven constitutive expression plasmid which expresses the 110-nucleotide mir-143 pri-miRNA sequence (SEQ ID NO: 38), to act as a mir-143 pri-miRNA mimic. The pCR3-pri-mir control (“pri-mir-control”) is a CMV promotor-driven constitutive expression plasmid which is designed to express a similar 110-nucleotide pri-miRNA sequence ([…] CAGC; SEQ ID NO: 862) wherein the mature mir-143 sequence has been replaced with an unrelated sequence and the predicted complementary strand opposite it within the pri-miRNA structure is replaced with a nearly complementary sequence in order to preserve the stem loop as well as the bulge structure of the natural mir-143 pri-miRNA. Additionally, in order to test the effect of an oligomeric compound targeting a miRNA, the T-REx™-HeLa cells were also transfected with the uniform 2′-MOE phosphorothioate (PS) antisense oligomeric compound ISIS Number 327901 (SEQ ID NO: 319), targeted to mir-143 previously described.
Twenty-four hours post-transfection, cells were trypsinized and GFP fluorescence was analyzed by flow cytometry.

In data set [3] the test system is mir-21 miRNA. Kind of data set: pGL3-mir-21 sensor luciferase assay in HeLa cells. Type of data set: cell-based, human. In a few lines:
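HeLa cells were transiently transfected with pGL3-Control carrying a mir-21-complementary site in the luciferase 3′UTR, which endogenous mir-21 silences. 2′-MOE oligomeric compounds were given at 10 or 50 nM, or at 1.9, 5.5, 16.7 and 50 nM for dose response. Luciferase was normalized to pRL-CMV and expressed as percent of the plasmid-only untreated control.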

Where [4] appears, read: Table 44, pGL3-mir-21 sensor-expressing HeLa cells, 10 nM.
Where [5] appears, read: Table 44, pGL3-mir-21 sensor-expressing HeLa cells, 50 nM.

In the oligonucleotide strings, read from the 5' end, every base follows the letter of its sugar. An asterisk marks phosphorothioate; unmarked linkages are phosphodiester. Other units and linkages are bracketed, terminal groups are in braces. A string of capitals states the bases alone. e = 2'-O-(2-methoxyethyl) (MOE); [5mC] = 5-methylcytosine; d = 2'-deoxy (DNA)

As to “328382 (e[5mC]*eA*eG*eA*e[5mC]*dT*d[5mC]*d[5mC]*d[5mC]*dA*dA*d[5mC]*dT*dG*dA*e[5mC]*e[5mC]*eA*eG*eA) [compound 328382]”, the “Fold Increase over UTC (caspase-3 activity, apoptosis)” value in data set [1] (200 nM oligomeric compound, experiment of Table 10) amounted to 0.9 fold.

For “328691 (e[5mC]*e[5mC]*e[5mC]*e[5mC]*eA*dT*d[5mC]*dT*dT*dA*dG*d[5mC]*dA*dT*d[5mC]*eT*eA*eA*eG*eG) [compound 328691]”, in data set [1] (200 nM, relative to untreated control), the “Fold Increase over UTC (caspase activity)” value is 0.9.

Consider “327901 (antisense eT*eG*eA*eG*e[5mC]*eT*eA*e[5mC]*eA*eG*eT*eG*e[5mC]*eT*eT*e[5mC]*eA*eT*e[5mC]*eT*e[5mC]*eA) [compound 327901]”, for which the Mean fluorescence in data set [2] (oligo with GFP mir-143 sensor only) came out at 4.2 arbitrary units; in data set [2] (oligo with pri-mir-143, no GFP plasmid) it was 3.7 arbitrary units; in data set [2] (oligo with pri-mir-143 and GFP mir-143 sensor), 4.1 arbitrary units. The results for the “luciferase expression % UTC” value in data set [3] (setting [4]) and in data set [3] (setting [5]) were 74.2 % UTC and 83.1 % UTC, respectively.

In the case of “TGAGCTACAGTGCTTCATCTCA [ISIS 327901] (chemistry not given here) [uniform 2′-MOE PS; targets mir-143]”, the “recovery of GFP fluorescence” value in data set [2] (with 20 nM mir-143 dsRNA, 4-, 20- or 100 nM) was “blocked the inhibitory effect of the mir-143 dsRNA oligomeric compound”.

With “327917 (antisense eT*e[5mC]*eA*eA*e[5mC]*eA*eT*e[5mC]*eA*eG*eT*e[5mC]*eT*eG*eA*eT*eA*eA*eG*e[5mC]*eT*eA) [compound 327917]”, the “luciferase expression % UTC” value in data set [3] (setting [4]) is listed as 1037.6 % UTC; in data set [3] (setting [5]), 847.5 % UTC; in data set [3] (Table 50, pGL3-mir-21 sensor-expressing HeLa cells, 1.9 nM, normalized to pRL-CMV), 522 % UTC; in data set [3] (Table 50, pGL3-mir-21 sensor-expressing HeLa cells, 5.5 nM, normalized to pRL-CMV), 1293 % UTC; in data set [3] (Table 50, pGL3-mir-21 sensor-expressing HeLa cells, 16.7 nM, normalized to pRL-CMV), 2470 % UTC; in data set [3] (Table 50, pGL3-mir-21 sensor-expressing HeLa cells, 50 nM, normalized to pRL-CMV) it was 4534 % UTC.
